The results in this text go back to patent US20050222200A1, “AMIDE DERIVATIVES AS ION CHANNEL LIGANDS AND PHARMACEUTICAL COMPOSITIONS AND METHODS OF USING THE SAME” (Renovis, Inc., priority 2003, published 2005).

For the assay, the target named is T1, VR1 (Homo sapiens, UniProt Q8NER1).
T1 construct: expressed in transfected cells; host or cells: 293 cells ("293 neurons" [sic])
T1 sequence (Q8NER1 whole entry, species assumed): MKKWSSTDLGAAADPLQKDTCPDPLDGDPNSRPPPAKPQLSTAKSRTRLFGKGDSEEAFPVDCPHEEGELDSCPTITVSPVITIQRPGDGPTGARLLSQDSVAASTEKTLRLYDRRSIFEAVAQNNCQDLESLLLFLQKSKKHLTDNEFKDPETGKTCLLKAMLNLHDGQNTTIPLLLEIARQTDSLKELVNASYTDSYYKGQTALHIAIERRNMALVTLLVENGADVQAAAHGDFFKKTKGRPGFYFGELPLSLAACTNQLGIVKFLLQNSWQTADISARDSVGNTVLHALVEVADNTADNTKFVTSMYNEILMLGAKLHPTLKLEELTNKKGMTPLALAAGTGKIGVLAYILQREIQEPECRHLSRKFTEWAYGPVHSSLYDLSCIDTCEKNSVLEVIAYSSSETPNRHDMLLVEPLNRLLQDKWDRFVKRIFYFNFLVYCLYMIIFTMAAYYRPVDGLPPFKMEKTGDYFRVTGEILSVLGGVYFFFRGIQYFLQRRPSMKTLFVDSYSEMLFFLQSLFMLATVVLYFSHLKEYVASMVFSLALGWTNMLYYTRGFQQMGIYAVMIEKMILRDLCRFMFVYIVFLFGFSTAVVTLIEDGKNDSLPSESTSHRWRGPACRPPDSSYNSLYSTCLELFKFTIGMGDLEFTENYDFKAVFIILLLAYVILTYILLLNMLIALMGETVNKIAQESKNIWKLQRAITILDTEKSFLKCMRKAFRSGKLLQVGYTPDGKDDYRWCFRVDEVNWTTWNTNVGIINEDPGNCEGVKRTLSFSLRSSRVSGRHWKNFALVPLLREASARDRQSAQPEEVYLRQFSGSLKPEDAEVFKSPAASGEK
As to the kind of experiment: High throughput calcium imaging assay of VR1 antagonists (Fura2, Flex Station, 96 well). Note: test concentration or dose not given here. To be noted: Table 1 activity class. Type of assay: cell-based.
As for `COc1ccc(NC(=O)c2ccc(/C=C/C(C)(C)C)cc2)cc1` [Compound 15], the “inhibition of calcium ion influx induced by capsaicin stimulation” value (“inhibition of calcium ion influx induced” for short) is “+ (compound exhibited 0-25% inhibition of calcium ion influx induced by capsaicin stimulation)”.

Regarding `CC(C)/C=C/c1ccc(C(=O)Nc2ccnc(Cl)c2)cc1` [Compound 168], the “inhibition of calcium ion influx induced” value is “+ (compound exhibited 0-25% inhibition of calcium ion influx induced by capsaicin stimulation)”.

Take `CCC/C=C/c1ccc(C(=O)Nc2ccccc2CCC)cc1` [Compound 230]: the “inhibition of calcium ion influx induced” value is listed as “+ (compound exhibited 0-25% inhibition of calcium ion influx induced by capsaicin stimulation)”.

Take `CC(C)(C)/C=C/c1ccc(C(=O)NC(C)(C)c2ccccc2)cc1` [Compound 26]: the “inhibition of calcium ion influx induced” value is recorded as “+ (compound exhibited 0-25% inhibition of calcium ion influx induced by capsaicin stimulation)”.

Consider `CCN(CC)c1ccc(NC(=O)c2ccc(/C=C/C(C)(C)C)cc2)cc1` [Compound 62], for which the “inhibition of calcium ion influx induced” value is reported as “++++ (compound exhibited 75% or greater inhibition of calcium ion influx induced by capsaicin stimulation)”.

In the case of `CCCCc1ccc(NC(=O)c2ccc(/C=C/C(C)(C)C)cc2)cc1` [Compound 42], the “inhibition of calcium ion influx induced” value was “+ (compound exhibited 0-25% inhibition of calcium ion influx induced by capsaicin stimulation)”.

For the molecule `CCn1c2ccccc2c2cc(NC(=O)c3ccc(/C=C/C(C)C)cc3)ccc21` [Compound 172], the “inhibition of calcium ion influx induced” value is given as “++ (compound exhibited 25-50% inhibition of calcium ion influx induced by capsaicin stimulation)”.

For the molecule `CC(C)/C=C/c1ccc(C(=O)NCC(C)C)cc1` [Compound 139], the “inhibition of calcium ion influx induced” value is recorded as “+ (compound exhibited 0-25% inhibition of calcium ion influx induced by capsaicin stimulation)”.

As for `CC(C)(C)/C=C/c1ccc(C(=O)Nc2ccc3[nH]ccc3c2)cc1` [Compound 66], the “inhibition of calcium ion influx induced” value is “++ (compound exhibited 25-50% inhibition of calcium ion influx induced by capsaicin stimulation)”.

For the molecule `CC(C)/C=C/c1ccc(C(=O)Nc2ccc3c(c2)OCO3)cc1` [Compound 169], the “inhibition of calcium ion influx induced” value is listed as “+++ (compound exhibited 50-75% inhibition of calcium ion influx induced by capsaicin stimulation)”.

For the molecule `COc1ccc(CCNC(=O)c2ccc(/C=C/C(C)(C)C)cc2)cc1OC` [Compound 24], the “inhibition of calcium ion influx induced” value is listed as “+ (compound exhibited 0-25% inhibition of calcium ion influx induced by capsaicin stimulation)”.

On to `CN1CCC(NC(=O)c2ccc(/C=C/C(C)(C)C)cc2)CC1` [Compound 65], for which the “inhibition of calcium ion influx induced” value was “+ (compound exhibited 0-25% inhibition of calcium ion influx induced by capsaicin stimulation)”.

For the molecule `CCC/C=C/c1ccc(C(=O)Nc2cccc(N(C)C)c2)cc1` [Compound 226], the “inhibition of calcium ion influx induced” value was “+++ (compound exhibited 50-75% inhibition of calcium ion influx induced by capsaicin stimulation)”.

Turning to `Cc1ccnc(NC(=O)c2ccc(/C=C/C(C)(C)C)cc2)c1` [Compound 64], the “inhibition of calcium ion influx induced” value is listed as “+ (compound exhibited 0-25% inhibition of calcium ion influx induced by capsaicin stimulation)”.

In the case of `CCC/C=C/c1ccc(C(=O)NCc2ccccc2)cc1` [Compound 196], the “inhibition of calcium ion influx induced” value was “+ (compound exhibited 0-25% inhibition of calcium ion influx induced by capsaicin stimulation)”.

On to `CC(C)(C)/C=C/c1ccc(C(=O)NCC2CCCO2)cc1` (stereo not drawn) [Compound 16], for which the “inhibition of calcium ion influx induced” value is “+ (compound exhibited 0-25% inhibition of calcium ion influx induced by capsaicin stimulation)”.

Regarding `CC(C)/C=C/c1ccc(C(=O)NCCc2ccc(S(N)(=O)=O)cc2)cc1` [Compound 116], the “inhibition of calcium ion influx induced” value was “+ (compound exhibited 0-25% inhibition of calcium ion influx induced by capsaicin stimulation)”.

Take `CCC/C=C/c1ccc(C(=O)NCc2ccc(C(C)C)cc2)cc1` [Compound 185]: the “inhibition of calcium ion influx induced” value was “+ (compound exhibited 0-25% inhibition of calcium ion influx induced by capsaicin stimulation)”.
